Marks after values point to notes of the source that are not given here.

Usually fraction unbound stands for the share of the substance not bound to proteins or other matrix.

For data set [1], the target named is T1, HSA (Homo sapiens, UniProt P02768). In words: HSA binding by equilibrium dialysis or ultrafiltration, 4.5% weight/volume HSA, pH 7.4 buffer.
Description: (§1) In this application, the measurement of percent binding of the contrast agent to HSA has an error of approximately ±5%.
A short description of data set [2]: Rat plasma pharmacokinetic experiment (Gd153 radiolabeled complexes, tail vein injection).
Protocol: In this application, blood half-life data, as measured by AUC-conc., represents experimentation in rats.
(§2) Rats were injected intravenously (tail vein) with 0.1 mmol/kg of the Gd^153 radiolabeled complexes. Plasma concentrations were determined over 30 minutes and fit to a standard bi-exponential two-compartment model. […] In addition, the 1/T1s of the plasma samples were recorded (at 20 MHZ, 37° C.) to assess the efficacy as MRI agents.
Data set [3] in a line: 1/T1 of rat plasma samples after intravenous injection (efficacy as MRI agents). Particulars: rats, 0.1 mmol/kg i.v., plasma 1/T1 at 20 MHZ, 37° C., first 10 minutes. The format is in vivo.
Protocol: as §2
For data set [4], the target named is T1, HSA.
Description: as §1

T1 sequence (P02768 25-609): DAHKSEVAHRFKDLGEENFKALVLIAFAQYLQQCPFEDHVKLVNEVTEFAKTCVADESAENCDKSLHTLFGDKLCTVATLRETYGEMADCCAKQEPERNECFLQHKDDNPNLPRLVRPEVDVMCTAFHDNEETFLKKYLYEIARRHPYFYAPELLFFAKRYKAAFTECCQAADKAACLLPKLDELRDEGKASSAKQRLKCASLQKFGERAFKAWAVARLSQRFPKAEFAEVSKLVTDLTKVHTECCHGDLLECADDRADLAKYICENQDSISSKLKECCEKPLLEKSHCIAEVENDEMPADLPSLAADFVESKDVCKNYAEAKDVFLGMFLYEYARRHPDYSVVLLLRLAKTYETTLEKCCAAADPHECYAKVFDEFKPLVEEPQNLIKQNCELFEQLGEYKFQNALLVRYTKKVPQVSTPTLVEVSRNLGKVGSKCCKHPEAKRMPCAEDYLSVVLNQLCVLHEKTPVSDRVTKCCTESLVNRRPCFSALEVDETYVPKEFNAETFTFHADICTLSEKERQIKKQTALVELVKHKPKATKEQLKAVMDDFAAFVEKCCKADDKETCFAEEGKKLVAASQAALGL

On to `O=C(O)CN(CCN(CC(=O)O)CC(COP(=O)(O)OCCCCCCCCCCc1ccccc1)N(CC(=O)O)CC(=O)O)CC(=O)O` (stereo not drawn), for which the fraction unbound on HSA [1] (human, 4.5% weight/volume human serum albumin (HSA) solution) was < 0.05. Moreover, the “AUC-conc. (for 0 to 10 minutes) greater than that of analogue” value in data set [2] (0 to 10 minutes, versus analogue drawing 27) is ≥ 100%.
Take `O=C([O-])CN(CCN(CC(=O)[O-])CC(=O)O)CCN(CC(=O)[O-])CC(=O)O.[Gd+3]` [DTPA, gadolinium diethylenetriamine-pentaacetic acid]: at HSA [1] (4.5% HSA, error approx ±5%), the “% bound to HSA” value is 0%. The AUC-1/T1 in data set [3] is given as 27 s^−1 * min. The “binding to HSA (in words)” value on HSA [4] is listed as “little or no binding to HSA”. In data set [2] (elimination half-life, rats, 0.1 mmol/kg i.v. tail vein, plasma over 30 min, bi-exponential two-compartment model), this compound came in with a t1/2 of 15.0 min. The blood half-life in data set [2] (rats) is 15 min. The same compound yielded an AUC-conc in data set [2] (rats, 0.1 mmol/kg i.v., first 10 minutes, error approx ±10%) of 3.5 mM·min. The “AUC-conc. from 0 to 10 minutes” value in data set [2] (two rats, 0.1 mmol/kg tail vein, Gd153-labeled, calculated with KaleidaGraph) was 3.5 mM·min.
